# Test results taken from US20070190628A1, “Yeast food composition for fuel ethanol production” (priority 2006, published 2007).
# What was measured:
# active dry yeast “z” [1] = test: Individual nutritive elements added to normal gravity corn mash: fermentation rate and viable cell numbers; assay type: cell-based, Saccharomyces cerevisiae
# Description: Normal gravity corn mash was prepared using ground #2 yellow dent corn obtained from Commercial Alcohols Inc. (275 Bloomfield Road, Chatham, Ontario, Canada N7M 5J5). […] One part by weight of ground corn was dispersed into three parts of 50° C., sterile dH2O containing 1 mM CaCl2.2H2O. To minimize the development of excessive viscosity during gelatinization, 1.25 mL of high temperature (HT-2X) α-amylase such as was supplied by Alltech Inc. in Nicholasville, Ky., USA (HT-2X α-amylase is no longer available from Alltech), was added per litre of mash as the ground corn was dispersed. It should be noted that if Ca-independent alpha amylases are used such as Termamyl® SC supplied by Novozymes North America in Franklinton, N.C., USA, then the 1 mM CaCl2.2H2O is not required. Following the addition of the ground corn and a five-minute mixing period to produce a homogenous mixture, the temperature was increased until the mash reached 94° C. where it was held at this temperature for 60 min with continued stirring. The temperature of the gelatinized starch was then reduced to 80° C. and liquefied by a second dose of HT-2X αx-amylase (1.25 mL/L) with continued stirring for 30 min. Sterile Celstir® (Wheaton Scientific, Millville, N.J.) fermentor vessels were filled with 1 L aliquots of this mash. To each fermentor vessel, filter-sterilized (25 mm, 0.2 μm Acrodisc® syringe filter, Pall Corporation, Ann Arbor, Mich.) urea (Fisher Scientific, Co., NJ), was added to achieve a final concentration of 8 mM. Cold-sterilization of the mash was assured by the addition of 100 μL of diethyl pyrocarbonate (DEPC, Sigma Chemical Co.) per litre of mash mixing the mash mechanically (IKA-Labortechnik, Staufen, Germany) for 5-10 min followed by cooling the fermentor vessels at 4° C. cold room for ˜72 hrs. The fermentor vessels were then removed from the cold room, connected to 30° C. water bath circulators and mixed. Glucoamylase in the form of Allcholase II 400 supplied by Alltech Inc. was then added (1.5 mL/L mash) 30 min prior to yeast inoculation to initiate saccharification of the dextrins formed during gelatinization and liquefaction (it should be noted that Allcholase II 400 is no longer available and any glucoamylase may be used). The mash thus prepared contained 19-20 g of dissolved solids/100 mL of mash as determined by a digital density meter analyzer (model DMA-45, Anton Paar KG, Graz, Austria) maintained at 20° C.
# Eleven grams of a commercially available active dry yeast, designated as “z”, were rehydrated by dispersal in 99 mL of preheated 38° C., 0.1% (w/v) sterile water and incubation for 20 min with periodic shaking in a 38° C. water bath. Fermentor vessels containing normal density corn mash were prepared as described above and inoculated with sufficient active yeast to provide an initial viable cell count of 1×10^7 cells per mL mash. The optimal fermentation temperature for the active dry yeast “z” was determined by conducting fermentations at 30°, 34°, 36°, 38°, and 40° C.
# The effects of individual elements on yeast cell biomass production and fermentation in a fermentation feedstock were assessed by separately supplementing of corn mash with nitrogen, phosphorus, magnesium, sulphur and zinc. Nitrogen effects were assessed in corn mashes by the additions of urea to provide final concentrations in the mash of […]. Phosphorus effects were assessed in corn mashes amended with 16 mM urea, by the additions of (NH4)2HPO4 (BDH Chemicals Inc, Toronto, Ont., MW: 132.06) to provide final concentrations of 0, 0.1, 0.2, 0.4, 0.6, and 0.8 g of (NH4)2HPO4/L of mash. Magnesium effects were assessed in corn mashes amended with 16 mM urea, by the additions of MgSO4.7H2O (BDH Chemicals Inc., MW. 246.48) to provide final concentrations of 0, 0.025, 0.049, 0.074, 0.099, 0.148, 0.197 g of MgSO4.7H2O/L of mash. […]
# active dry yeast “z” [2] = test: EVOP optimization of phosphorus and sulfur concentrations for fermentation rate in corn mash; assay type: cell-based, Saccharomyces cerevisiae; details: combined with 16 mM urea, 0.049 g/L MgSO4.7H2O and 0.273 mg/L ZnSO4.7H2O
# Description: The Evolution Operation Method (EVOP) described by Box et al, (1969, Evolutionary Operation: A Statistical Method for Process Improvement, John Wiley & Sons, NY, N.Y.) was used to optimize the concentrations of phosphorus and sulfur combined with urea, magnesium and zinc for increasing fermentation rates in corn mash.
# Multiple sterile 2-L Celstir® fermentors were each filled with 1 L of corn mash supplemented with 16 mM urea, 0.049 g/L MgSO4.7H2O, and 0.273 mg/L ZnSO4.7H2O. The active dry yeast “z” was used as the inoculum in this study. The EVOP testing was conducted by using the “low” concentration values of phosphorus and sulfur (0.8 g/L (NH4)2HPO4 and 0.16 g/L (NH4)2SO4) from Table 1 as the center points for assessing 4 additional phosphorus and sulphur concentrations around these points for their effects on fermentation rates. If the response of a particular point around the center point was significant, then this particular point became the new center point and 4 new concentration values would be examined as described by Box et al (1969). […] Fermentation rates were determined by repeated sampling and sample processing at specific time intervals as described in Example 1.
# [3] = ZnSO4.7H2O 0.287 mg/L to 2.30 mg/L (1 to 8 μM), mash with 16 mM urea
# [4] = (NH4)2HPO4 above 0.4 g/L, mash with 16 mM urea
smiles,measurement,setting,value
O.O.O.O.O.O.O.O=S(=O)([O-])[O-].[Zn+2] [ZnSO4.7H2O],effect on fermentation rates,active dry yeast “z” [1]; [3],negative effects
same,effect on numbers of yeast cells produced,active dry yeast “z” [1]; [3],negative effects
N.N.O=P(O)(O)O [(NH4)2HPO4],effect on rates of dissolved solids utilization,"active dry yeast “z” [1]; 0.1 g/L to 0.4 g/L (NH4)2HPO4, mash with 16 mM urea",significantly increased
same,effect on cell yields,active dry yeast “z” [1]; [4],decreased cell yields
same,effect on fermentation rates,active dry yeast “z” [1]; [4],decreased fermentation rates
same,optimal concentration for supplementing corn mash,active dry yeast “z” [2],1.6 g/L
O.O.O.O.O.O.O.O=S(=O)([O-])[O-].[Mg+2] [MgSO4.7H2O],effect on fermentation rate,"active dry yeast “z” [1]; MgSO4.7H2O exceeding 0.074 g/L (0.3 mM Mg2+), mash with 16 mM urea",decreased fermentation rate
N.N.O=S(=O)(O)O [(NH4)2SO4],effect on the rate of fermentation,"active dry yeast “z” [1]; (NH4)2SO4 above 0.04 g/L, mash with 16 mM urea",did not further benefit
same,yeast cell yields,"active dry yeast “z” [1]; (NH4)2SO4 above 0.04 g/L, mash with 16 mM urea, increased from 3.3×10^8/mL",4e+08 mL⁻¹
same,optimal concentration for supplementing corn mash,active dry yeast “z” [2],0.32 g/L
